In ChEMBL document CHEMBL1137527, “Synthesis and biological evaluation of norcantharidin analogues: towards PP1 selectivity” (Bioorg Med Chem, 2007):

What was measured:
[1] = Inhibition of PP2A in human red blood cells; format: cell-based
[2] = Selectivity ratio of IC50 for rabbit skeletal muscle PP1 over IC50 for human PP2A; format: tissue-based; details: Muscle tissue
[3] = Inhibition of PP1 in rabbit skeletal muscle; format: tissue-based, Oryctolagus cuniculus, Muscle tissue
[4] = (§1) Inhibition of bovine brain PP2B; design: species or system Bos taurus
[5] = Selectivity ratio of IC50 for rabbit skeletal muscle PP1 over IC50 for bovine brain PP2B; format: tissue-based; details: Muscle tissue
Bos taurus = species: Bos taurus; assay: as §1

Row | Structure (SMILES) | IC50 [1] | Ratio IC50 [2] | IC50 [3] | IC50 [4] | Ratio IC50 [5] | IC50 (Bos taurus)
1 | O=C(NCCCCc1ccccc1)C1C(C(=O)O)[C@H]2CC[C@@H]1O2 (stereo partly specified) | 95 µM | 0.79 | 75 µM |  |  | 
2 | O=C(NCCN1CCOCC1)C1C(C(=O)O)[C@H]2CC[C@@H]1O2 (stereo partly specified) | 43 µM | 0.7 | 30 µM |  |  | 
3 | O=C(NCc1ccccc1)C1C(C(=O)O)[C@H]2CC[C@@H]1O2 (stereo partly specified) | 12 µM | 2.9 | 35 µM |  |  | 
4 | Cc1cc(C)c(NC(=O)C2C(C(=O)O)[C@H]3CC[C@@H]2O3)c(C)c1 (stereo partly specified) | 85 µM | 0.56 | 48 µM | 89 µM | 0.54 | 
5 | O=C(NCCCc1ccccc1)C1C(C(=O)O)[C@H]2CC[C@@H]1O2 (stereo partly specified) | 25 µM | 1 | 25 µM |  |  | 
6 | CN(C)CCNC(=O)C1C(C(=O)O)[C@H]2CC[C@@H]1O2 (stereo partly specified) | > 100 µM | < 0.67 | 67 µM |  |  | 
7 | O=C(Nc1cccc(CO)c1)C1C(C(=O)O)[C@H]2CC[C@@H]1O2 (stereo partly specified) | 7 µM | 2.14 | 15 µM |  |  | 
8 | O=C(NCc1ccc(C(F)(F)F)cc1)C1C(C(=O)O)[C@H]2CC[C@@H]1O2 (stereo partly specified) | 20 µM | 0.8 | 16 µM |  |  | 
9 | O=C(Nc1ccc(N2CCOCC2)cc1)C1C(C(=O)O)[C@H]2CC[C@@H]1O2 (stereo partly specified) | 7.9 µM | 0.82 | 6.5 µM | 42 µM | 0.15 | 
10 | CCCCCCOc1ccc(NC(=O)C2C(C(=O)O)[C@H]3CC[C@@H]2O3)cc1 (stereo partly specified) | 15 µM | 0.73 | 11 µM |  |  | 
11 | CSc1ccccc1NC(=O)C1C(C(=O)O)[C@H]2CC[C@@H]1O2 (stereo partly specified) | 33 µM | 0.7 | 23 µM |  |  | 
12 | O=C(Nc1ccc2ccccc2c1)C1C(C(=O)O)[C@H]2CC[C@@H]1O2 (stereo partly specified) | 15 µM | 0.93 | 14 µM |  |  | 
13 | C[C@@]12C(=O)OC(=O)[C@]1(C)[C@H]1CC[C@@H]2O1 [CANTHARIDIN] | 0.99 µM | 7.7 | 7.6 µM |  | > 0.07 | > 100 µM
14 | Cc1cccc(C)c1NC(=O)C1C(C(=O)O)[C@H]2CC[C@@H]1O2 (stereo partly specified) | 72 µM | 0.78 | 56 µM |  |  | 
15 | Cc1cccc(NC(=O)C2C(C(=O)O)[C@H]3CC[C@@H]2O3)c1C (stereo partly specified) | 18 µM | 0.94 | 17 µM |  |  | 
16 | O=C1OC(=O)C2C3CCC(O3)C12 (stereo unspecified) [DEMETHYL-CANTHARIDIN] | 2.69 µM | 3.8 | 10.3 µM | 31 µM | 0.33 | 
17 | CCc1ccccc1NC(=O)C1C(C(=O)O)[C@H]2CC[C@@H]1O2 (stereo partly specified) | 24 µM | 2.12 | 51 µM |  |  | 
18 | O=C(NCc1ccc(F)c(F)c1)C1C(C(=O)O)[C@H]2CC[C@@H]1O2 (stereo partly specified) | 26 µM | 1 | 26 µM |  |  | 
19 | COc1ccc(NC(=O)C2C(C(=O)O)[C@H]3CC[C@@H]2O3)cc1 (stereo partly specified) | 16 µM | 0.94 | 15 µM |  |  | 
20 | CSc1ccc(NC(=O)C2C(C(=O)O)[C@H]3CC[C@@H]2O3)cc1 (stereo partly specified) | 14 µM | 0.71 | 10 µM |  |  | 
21 | O=C(Nc1ccccc1)C1C(C(=O)O)[C@H]2CC[C@@H]1O2 (stereo partly specified) | 7.7 µM | 3.2 | 24.3 µM |  |  | 
22 | CN(C)CCCNC(=O)C1C(C(=O)O)[C@H]2CC[C@@H]1O2 (stereo partly specified) | 57 µM | 0.75 | 43 µM |  |  | 
23 | C#Cc1cccc(NC(=O)C2C(C(=O)O)[C@H]3CC[C@@H]2O3)c1 (stereo partly specified) | 18 µM | 0.94 | 17 µM |  |  | 
24 | CC(C)(C)c1ccc(NC(=O)C2C(C(=O)O)[C@H]3CC[C@@H]2O3)cc1 (stereo partly specified) | 11 µM | 0.91 | 10 µM |  |  | 
25 | O=C(Nc1ccccc1CO)C1C(C(=O)O)[C@H]2CC[C@@H]1O2 (stereo partly specified) | 39 µM | 0.92 | 36 µM |  |  | 
26 | CC(C)(C)c1ccc(NC(=O)C2C(C(=O)O)[C@H]3CC[C@@H]2O3)c(C(C)(C)C)c1 (stereo partly specified) | 8.2 µM | 1 | 8.2 µM |  |  | 
